Results reported in ChEMBL document CHEMBL2073986, “Impaired organic anion transport in kidney and choroid plexus of organic anion transporter 3 (Oat3 (Slc22a8)) knockout mice” (J Biol Chem, 2002).

Target: T1, Organic anion transporter 3 (Mus musculus, UniProt O88909)
T1 sequence (O88909 whole entry): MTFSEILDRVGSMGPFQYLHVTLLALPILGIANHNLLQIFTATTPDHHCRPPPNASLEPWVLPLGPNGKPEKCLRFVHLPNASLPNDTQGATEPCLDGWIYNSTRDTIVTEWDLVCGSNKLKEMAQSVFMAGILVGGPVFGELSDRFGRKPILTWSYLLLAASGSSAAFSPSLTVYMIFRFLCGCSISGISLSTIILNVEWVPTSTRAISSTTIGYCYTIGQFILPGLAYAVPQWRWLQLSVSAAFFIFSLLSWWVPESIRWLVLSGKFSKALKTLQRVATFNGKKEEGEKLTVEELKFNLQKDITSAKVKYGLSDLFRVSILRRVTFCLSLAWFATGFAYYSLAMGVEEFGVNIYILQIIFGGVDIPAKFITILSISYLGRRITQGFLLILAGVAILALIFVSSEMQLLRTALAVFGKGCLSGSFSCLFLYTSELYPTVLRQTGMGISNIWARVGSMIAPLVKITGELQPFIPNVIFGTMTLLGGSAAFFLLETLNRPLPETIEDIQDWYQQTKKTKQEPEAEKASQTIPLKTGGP
Test: TP_TRANSPORTER: uptake in Xenopus laevis oocytes
Format: functional, cell-based
Settings: oocyte

| Activity | SMILES |
| --- | --- |
| substrate [+] | C[C@]12CC[C@@H]3c4ccc(OS(=O)(=O)O)cc4CC[C@H]3[C@@H]1CCC2=O [ESTRONE SULFURIC ACID] |
| substrate [+] | Nc1ccc(C(=O)NCC(=O)O)cc1 [AMINOHIPPURIC ACID] |
